# From ChEMBL document CHEMBL1687806, “Susceptibility of treatment-naive hepatitis C virus (HCV) clinical isolates to HCV protease inhibitors” (Antimicrob Agents Chemother, 2010)
# Assays:
# [1] = test system: Hepatitis C virus; test: Antiviral activity against HCV1b Con1 harboring NS3 protease gene infected in human Huh7/Lunet cells assessed as inhibition of viral replication after 3 days by luciferase based transient-transfection assay; format: functional, organism-based, Hepacivirus hominis; settings: Con1, Huh-7, 72 h
# [2] = test system: Hepatitis C virus; test: Ratio of EC50 for wild type HCV1b harboring NS3 protease gene to EC50 for HCV1b B13 harboring NS3 protease R26K, V46I, Q80L mutant; format: functional, Hepacivirus hominis, genotype 1b
# [3] = test system: Hepatitis C virus; test: Ratio of EC50 for wild type HCV1b harboring NS3 protease gene to EC50 for HCV1b A25 harboring NS3 protease T40A, T54S, V55I, I64L, P67S, Q80K, Q88H, S90A, L153I mutant; format: functional, Hepacivirus hominis, genotype 1b
# [4] = test system: Hepatitis C virus; test: Ratio of EC50 for wild type HCV1b harboring NS3 protease gene to EC50 for HCV1b B10 harboring NS3 protease S7A, R26K, V48I, T54S mutant; format: functional, Hepacivirus hominis, genotype 1b
# [5] = test system: Hepatitis C virus; test: Antiviral activity against HCV1b harboring Q80Q polymorphism in NS3 protease gene infected in human Huh7/Lunet cells assessed as inhibition of viral replication after 3 days by luciferase based transient-transfection assay; format: functional, organism-based, Hepacivirus hominis; settings: genotype 1b, Huh-7, 72 h
# [6] = test system: Hepatitis C virus; test: Antiviral activity against HCV1b harboring Q80K polymorphism in NS3 protease gene infected in human Huh7/Lunet cells assessed as inhibition of viral replication after 3 days by luciferase based transient-transfection assay; format: functional, organism-based, Hepacivirus hominis; settings: genotype 1b, Huh-7, 72 h
# [7] = test system: Hepatitis C virus; test: Ratio of EC50 for HCV1b harboring Q80K polymorphism in NS3 protease gene to EC50 for HCV1b harboring Q80Q polymorphism in NS3 protease gene; format: functional, Hepacivirus hominis, genotype 1b
# [8] = test system: Hepatitis C virus; test: Ratio of EC50 for wild type HCV1b harboring NS3 protease gene to EC50 for HCV1b harboring NS3 protease T54S mutant; format: functional, Hepacivirus hominis, genotype 1b
# [9] = test system: Hepatitis C virus; test: Ratio of EC50 for wild type HCV1b harboring NS3 protease gene to EC50 for HCV1b harboring NS3 protease Q80K mutant; format: functional, Hepacivirus hominis, genotype 1b
# [10] = test system: Hepatitis C virus; test: Ratio of EC50 for wild type HCV1b harboring NS3 protease gene to EC50 for HCV1b harboring NS3 protease Q80K, T54S mutant; format: functional, Hepacivirus hominis, genotype 1b
SMILES,EC50 [1] [nM],Ratio EC50 [2],Ratio EC50 [3],Ratio EC50 [4],EC50 [5] [nM],EC50 [6] [nM],Ratio EC50 [7],Ratio EC50 [8],Ratio EC50 [9],Ratio EC50 [10]
CCCCCOc1ccc(NC(=S)NC(=O)c2cccnc2)cc1C(F)(F)F,28.2,–,–,–,–,–,–,–,–,–
CC(C)(C)NC(=O)N[C@H](C(=O)N1C[C@H]2[C@@H]([C@H]1C(=O)NC(CC1CCC1)C(=O)C(N)=O)C2(C)C)C(C)(C)C (stereo partly specified) [BOCEPREVIR],276,1,1.7,9,201,91.5,0.4,4.7,0.9,1.7
CC(C)(C)OC(=O)N[C@H]1CCCCC/C=C\[C@@H]2C[C@@]2(C(=O)NS(=O)(=O)C2CC2)NC(=O)[C@@H]2C[C@@H](OC(=O)N3Cc4cccc(F)c4C3)CN2C1=O [DANOPREVIR],0.6,1.7,2.7,1.2,0.25,0.62,1.7,1,6.3,5.3
COc1ccc2c(O[C@@H]3C[C@H]4C(=O)N[C@]5(C(=O)NS(=O)(=O)C6CC6)C[C@H]5/C=C\CCCCN(C)C(=O)[C@@H]4C3)cc(-c3nc(C(C)C)cs3)nc2c1C [SIMEPREVIR],3.3,1,10.8,0.8,2.7,20.1,7.5,0.7,10.9,7.3
CCC[C@H](NC(=O)[C@@H]1[C@H]2CCC[C@H]2CN1C(=O)[C@@H](NC(=O)[C@@H](NC(=O)c1cnccn1)C1CCCCC1)C(C)(C)C)C(=O)C(=O)NC1CC1 [TELAPREVIR],377,1,1,6.2,176,72,0.5,5.6,1,2.3
CC[C@@H]1C[C@]1(NC(=O)[C@@H]1C[C@@H]2CN1C(=O)[C@H](C(C)(C)C)NC(=O)OCC(C)(C)CCCCc1cccc3c1CN(C3)C(=O)O2)C(=O)NS(=O)(=O)C1CC1 [VANIPREVIR],0.7,1.5,2.2,1.2,0.27,0.41,1.5,0.5,6.6,3.7
